{"source": "patent US6631283B2", "about": "(priority 2000, dated 2003)", "test_system": "Vero cells", "type": "cell-based"}
{"substance": "Chlorin e6 [free Ce6]", "values": [{"measurement": "cell-associated Ce6-specific fluorescence (delivery of Ce6 to cells)", "result": "no detectable Ce6-specific fluorescence"}]}
